# ChEMBL document CHEMBL4428049, “Design and synthesis of aminothiazole modulators of the gamma-secretase enzyme” (Bioorg Med Chem Lett, 2016)
# What was measured:
# [1] = Ratio of drug level in brain to plasma in CD1 mouse at 5 mg/kg administered via oral gavage measured after 4 hrs by HPLC/MS/MS analysis; type: ADME, organism-based; settings: read-out: BPR
# [2] = Half life in CD1 mouse at 1 mg/kg, iv administered as single dose by HPLC/MS/MS analysis; type: ADME, organism-based; settings: in vivo
# Gamma-secretase = test: Modulation of gamma-secretase in human SH-SY5Y cells overexpressing wild-type human APP751 assessed as inhibition of Abeta42 level after 24 hrs by ELISA; type: cell-based
# [3] = Protein binding in plasma (unknown origin); type: ADME, cell-free; settings: read-out: PPB (converted)
# [4] = AUC (infinity) in CD1 mouse at 5 mg/kg administered via oral gavage by HPLC/MS/MS analysis; type: ADME, organism-based; set-up: dose 5 mg/kg, time infinity, route oral; settings: in vivo
# [5] = Stability in mouse liver microsomes assessed as compound remaining at 1 uM incubated for 30 mins; type: ADME, Microsome; settings: read-out: Stability
# [6] = AUC (last) in CD1 mouse at 5 mg/kg administered via oral gavage by HPLC/MS/MS analysis; type: ADME, organism-based; set-up: dose 5 mg/kg, time 0 - last, route oral; settings: in vivo
# [7] = Ratio of drug level in brain to plasma in CD1 mouse at 5 mg/kg administered via oral gavage by HPLC/MS/MS analysis; type: ADME, organism-based; settings: read-out: BPR
# [8] = Lipophilicity, log D of the compound; type: physicochemical; settings: octanol/water
# Cytochrome P450 2C9 = Cytochrome P450 2C9 (Homo sapiens, UniProt P11712); test: Inhibition of recombinant CYP2C9 (unknown origin) by fluorescence-based assay; type: ADME
# Cytochrome P450 2D6 = Cytochrome P450 2D6 (Homo sapiens, UniProt P10635); test: Inhibition of recombinant CYP2D6 (unknown origin) by fluorescence-based assay; type: ADME
# [9] = Ratio of drug level in brain to plasma in CD1 mouse at 1 mg/kg, iv administered as single dose measured after 1 hr by HPLC/MS/MS analysis; type: ADME, organism-based; settings: read-out: BPR
# [10] = AUC (last) in CD1 mouse at 1 mg/kg, iv administered as single dose by HPLC/MS/MS analysis; type: ADME, organism-based; set-up: dose 1 mg/kg, time 0 - last, route intravenous; settings: in vivo
# [11] = Cmax in CD1 mouse at 5 mg/kg administered via oral gavage by HPLC/MS/MS analysis; type: ADME, organism-based; set-up: dose 5 mg/kg, route oral; settings: in vivo
# [12] = Half life in CD1 mouse at 5 mg/kg administered via oral gavage by HPLC/MS/MS analysis; type: ADME, organism-based; settings: in vivo
# [13] = Tmax in CD1 mouse at 1 mg/kg, iv administered as single dose by HPLC/MS/MS analysis; type: ADME, organism-based; settings: in vivo
# [14] = biological target: Voltage-gated inwardly rectifying potassium channel KCNH2 (Homo sapiens, UniProt Q12809); test: Inhibition of human ERG channel expressed in HEK293 cells by patch-clamp assay; type: cell-based
# [15] = Ratio of drug level in brain to plasma in CD1 mouse at 5 mg/kg administered via oral gavage measured after 8 hrs by HPLC/MS/MS analysis; type: ADME, organism-based; settings: read-out: BPR
# [16] = Tmax in CD1 mouse at 5 mg/kg administered via oral gavage by HPLC/MS/MS analysis; type: ADME, organism-based; settings: in vivo
# Cytochrome P450 2C19 = Cytochrome P450 2C19 (Homo sapiens, UniProt P33261); test: Inhibition of recombinant CYP2C19 (unknown origin) by fluorescence-based assay; type: ADME
# [17] = Kinetic solubility in PBS buffer at pH 7.4 by UV/vis absorbance analysis; type: physicochemical; settings: read-out: Kinetic_solubility
# [18] = Apparent permeability in MDCK cells expressing MDR1; type: ADME, cell-based, Canis lupus familiaris; settings: dog
# [19] = Clearance in CD1 mouse at 1 mg/kg, iv administered as single dose by HPLC/MS/MS analysis; type: ADME, organism-based; settings: in vivo
# [20] = Efflux ratio of permeability from basolateral to apical over apical to basolateral side of MDCK cells expressing MDR1; type: ADME, cell-based, Canis lupus familiaris; settings: dog
# [21] = Cmax in CD1 mouse at 1 mg/kg, iv administered as single dose by HPLC/MS/MS analysis; type: ADME, organism-based; set-up: dose 1 mg/kg, route intravenous; settings: in vivo
# Cytochrome P450 3A4 = Cytochrome P450 3A4 (Homo sapiens, UniProt P08684); test: Inhibition of recombinant CYP3A4 (unknown origin) by fluorescence-based assay; type: ADME
# [22] = Clearance in CD1 mouse at 1 mg/kg administered intravenously by HPLC/MS/MS analysis relative to hepatic blood flow; settings: in vivo, iv
# [23] = Volume of distribution at steady state in CD1 mouse at 1 mg/kg, iv administered as single dose by HPLC/MS/MS analysis; type: ADME, organism-based; settings: in vivo, read-out: Vdss
# [24] = Stability in rat liver microsomes assessed as compound remaining at 1 uM incubated for 30 mins; type: ADME, Microsome; settings: read-out: Stability
# [25] = Stability in human liver microsomes assessed as compound remaining at 1 uM incubated for 30 mins; type: ADME, Microsome; settings: read-out: Stability
# [26] = AUC (infinity) in CD1 mouse at 1 mg/kg, iv administered as single dose by HPLC/MS/MS analysis; type: ADME, organism-based; set-up: dose 1 mg/kg, route intravenous, time infinity; settings: in vivo
# Cytochrome P450 1A2 = biological target: T1, Cytochrome P450 1A2 (Homo sapiens, UniProt P05177); test: Inhibition of recombinant CYP1A2 (unknown origin) by fluorescence-based assay; type: ADME
# T1 sequence (P05177 whole entry): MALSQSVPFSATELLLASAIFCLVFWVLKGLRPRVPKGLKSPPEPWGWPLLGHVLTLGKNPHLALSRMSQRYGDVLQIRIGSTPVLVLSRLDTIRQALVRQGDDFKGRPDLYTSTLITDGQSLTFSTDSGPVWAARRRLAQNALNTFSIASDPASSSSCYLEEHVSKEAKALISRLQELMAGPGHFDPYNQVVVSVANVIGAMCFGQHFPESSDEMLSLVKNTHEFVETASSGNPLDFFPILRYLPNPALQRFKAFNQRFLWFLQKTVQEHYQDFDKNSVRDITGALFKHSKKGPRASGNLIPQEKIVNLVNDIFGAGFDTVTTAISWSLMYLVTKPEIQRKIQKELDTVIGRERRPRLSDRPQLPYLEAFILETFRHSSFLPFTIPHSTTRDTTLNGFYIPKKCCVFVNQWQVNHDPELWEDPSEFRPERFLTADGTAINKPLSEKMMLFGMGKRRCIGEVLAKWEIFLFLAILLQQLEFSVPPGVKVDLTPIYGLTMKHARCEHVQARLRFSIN
# Sequence of Voltage-gated inwardly rectifying potassium channel KCNH2 (Q12809 whole entry): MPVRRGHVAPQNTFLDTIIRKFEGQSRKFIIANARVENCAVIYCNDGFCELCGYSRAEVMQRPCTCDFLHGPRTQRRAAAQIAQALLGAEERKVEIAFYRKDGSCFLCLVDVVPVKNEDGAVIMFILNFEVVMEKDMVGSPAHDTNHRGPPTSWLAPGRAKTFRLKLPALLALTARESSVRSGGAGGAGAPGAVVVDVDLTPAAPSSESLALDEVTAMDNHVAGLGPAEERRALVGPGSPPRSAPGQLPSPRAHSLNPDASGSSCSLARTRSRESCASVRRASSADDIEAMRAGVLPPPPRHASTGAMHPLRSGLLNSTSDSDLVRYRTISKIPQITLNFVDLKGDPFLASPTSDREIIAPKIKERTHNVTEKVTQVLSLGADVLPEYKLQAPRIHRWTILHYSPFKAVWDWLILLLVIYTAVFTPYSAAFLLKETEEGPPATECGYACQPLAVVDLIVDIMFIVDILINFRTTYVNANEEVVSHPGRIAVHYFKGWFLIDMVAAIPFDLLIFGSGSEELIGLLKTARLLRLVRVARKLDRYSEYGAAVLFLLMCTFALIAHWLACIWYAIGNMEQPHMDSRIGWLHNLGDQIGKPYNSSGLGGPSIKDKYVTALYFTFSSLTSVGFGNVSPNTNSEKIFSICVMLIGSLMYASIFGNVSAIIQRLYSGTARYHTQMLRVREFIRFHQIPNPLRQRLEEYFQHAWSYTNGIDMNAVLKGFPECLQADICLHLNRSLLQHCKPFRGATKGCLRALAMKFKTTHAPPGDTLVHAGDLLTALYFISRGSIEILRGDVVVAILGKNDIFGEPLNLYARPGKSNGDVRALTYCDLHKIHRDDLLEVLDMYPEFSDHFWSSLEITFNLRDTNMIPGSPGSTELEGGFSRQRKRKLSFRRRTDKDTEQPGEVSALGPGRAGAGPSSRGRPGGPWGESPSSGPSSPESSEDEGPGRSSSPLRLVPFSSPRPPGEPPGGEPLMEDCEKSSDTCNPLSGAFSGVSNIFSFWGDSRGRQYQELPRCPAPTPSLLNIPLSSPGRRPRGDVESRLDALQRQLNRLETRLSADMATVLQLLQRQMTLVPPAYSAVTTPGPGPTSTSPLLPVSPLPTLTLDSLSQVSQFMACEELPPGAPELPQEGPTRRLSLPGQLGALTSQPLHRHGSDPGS
# Sequence of Cytochrome P450 2C19 (P33261 whole entry): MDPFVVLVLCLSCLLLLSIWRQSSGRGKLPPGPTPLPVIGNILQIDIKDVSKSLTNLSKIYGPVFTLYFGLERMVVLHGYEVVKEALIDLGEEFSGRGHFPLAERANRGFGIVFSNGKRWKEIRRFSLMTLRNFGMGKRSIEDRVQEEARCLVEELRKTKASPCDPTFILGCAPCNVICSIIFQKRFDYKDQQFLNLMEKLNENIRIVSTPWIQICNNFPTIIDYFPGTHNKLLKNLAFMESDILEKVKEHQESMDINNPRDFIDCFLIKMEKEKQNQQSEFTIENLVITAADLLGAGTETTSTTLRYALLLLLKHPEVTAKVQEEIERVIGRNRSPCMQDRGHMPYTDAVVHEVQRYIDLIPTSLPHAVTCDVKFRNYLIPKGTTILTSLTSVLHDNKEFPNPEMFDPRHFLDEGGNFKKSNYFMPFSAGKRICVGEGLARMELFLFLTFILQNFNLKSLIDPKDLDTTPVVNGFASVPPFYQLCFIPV
# Sequence of Cytochrome P450 2C9 (P11712 whole entry): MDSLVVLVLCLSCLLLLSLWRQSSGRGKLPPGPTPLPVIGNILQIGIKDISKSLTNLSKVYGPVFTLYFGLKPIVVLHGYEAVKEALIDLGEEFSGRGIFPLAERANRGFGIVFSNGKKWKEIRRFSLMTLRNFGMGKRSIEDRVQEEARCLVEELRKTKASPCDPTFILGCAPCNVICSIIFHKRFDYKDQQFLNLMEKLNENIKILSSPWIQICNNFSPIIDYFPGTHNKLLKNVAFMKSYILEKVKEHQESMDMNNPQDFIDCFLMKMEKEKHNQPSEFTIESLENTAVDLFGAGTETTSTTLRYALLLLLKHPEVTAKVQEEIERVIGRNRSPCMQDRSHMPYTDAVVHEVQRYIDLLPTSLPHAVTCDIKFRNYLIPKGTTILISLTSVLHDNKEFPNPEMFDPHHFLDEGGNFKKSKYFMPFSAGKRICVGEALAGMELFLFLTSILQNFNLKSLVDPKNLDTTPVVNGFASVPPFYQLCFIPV
# Sequence of Cytochrome P450 3A4 (P08684 whole entry): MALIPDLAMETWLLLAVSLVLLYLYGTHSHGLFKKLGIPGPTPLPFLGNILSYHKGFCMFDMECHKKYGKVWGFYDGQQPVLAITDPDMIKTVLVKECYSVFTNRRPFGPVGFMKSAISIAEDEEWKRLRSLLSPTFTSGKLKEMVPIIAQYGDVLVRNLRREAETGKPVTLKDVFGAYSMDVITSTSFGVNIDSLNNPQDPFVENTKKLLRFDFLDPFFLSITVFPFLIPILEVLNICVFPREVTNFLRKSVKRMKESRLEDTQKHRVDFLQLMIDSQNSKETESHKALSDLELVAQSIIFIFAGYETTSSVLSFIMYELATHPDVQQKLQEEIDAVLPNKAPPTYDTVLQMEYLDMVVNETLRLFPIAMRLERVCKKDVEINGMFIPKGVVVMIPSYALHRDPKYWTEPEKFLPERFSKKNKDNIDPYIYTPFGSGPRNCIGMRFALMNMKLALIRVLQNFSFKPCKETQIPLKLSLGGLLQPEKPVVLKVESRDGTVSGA
# Sequence of Cytochrome P450 2D6 (P10635 whole entry): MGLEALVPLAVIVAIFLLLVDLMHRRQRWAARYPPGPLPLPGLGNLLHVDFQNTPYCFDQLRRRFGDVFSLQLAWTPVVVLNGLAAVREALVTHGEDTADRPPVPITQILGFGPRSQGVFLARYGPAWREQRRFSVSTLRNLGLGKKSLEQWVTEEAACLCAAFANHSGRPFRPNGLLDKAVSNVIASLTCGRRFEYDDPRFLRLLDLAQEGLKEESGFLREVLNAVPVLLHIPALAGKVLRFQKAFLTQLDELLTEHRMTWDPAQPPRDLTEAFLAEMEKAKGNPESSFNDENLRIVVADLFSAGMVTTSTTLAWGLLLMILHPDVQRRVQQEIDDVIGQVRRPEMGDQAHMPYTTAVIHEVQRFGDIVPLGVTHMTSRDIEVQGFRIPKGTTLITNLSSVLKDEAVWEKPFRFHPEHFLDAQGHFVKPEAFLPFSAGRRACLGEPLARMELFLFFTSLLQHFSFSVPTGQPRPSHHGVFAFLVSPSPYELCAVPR
smiles,measurement,setting,value
CCn1nc(C(C)(C)C)cc1Nc1nc(-c2ccc(-n3cnc(C)c3)c(F)c2)cs1,Kp at 4 h,[1],0.53
same,half-life,[2],2.4 h
same,IC50,Gamma-secretase,0.063 µM
same,fraction unbound,[3],0.006
same,AUC(0-inf),[4],5720 ng·h/mL
same,"remaining at 0.5 h, 1 µM",[5],95%
same,AUC(0-t),[6],5390 ng·h/mL
same,Kp,[7],0.5
same,logD,[8],3.64
same,IC50,Cytochrome P450 2C9,> 100 µM
same,IC50,Cytochrome P450 2D6,> 100 µM
same,Kp at 1 h,[9],0.64
same,AUC(0-t),[10],335 ng·h/mL
same,Cmax,[11],1000 ng/mL
same,half-life,[12],6 h
same,Tmax,[13],4.98 min
same,IC50,[14],> 30 µM
same,Kp at 8 h,[15],0.59
same,Tmax,[16],1 h
same,IC50,Cytochrome P450 2C19,82 µM
same,solubility kinetic,[17],4.7 µM
same,Papp,[18],0.97 ×10⁻⁶ cm/s
same,clearance,[19],33.5 mL/min/kg
same,efflux ratio,[20],1.6
same,Cmax,[21],161 ng/mL
same,IC50,Cytochrome P450 3A4,16 µM
same,CL,[22],40%
same,Vd,[23],7.15 L/kg
same,"remaining at 0.5 h, 1 µM",[24],64%
same,"remaining at 0.5 h, 1 µM",[25],51%
same,AUC(0-inf),[26],498 ng·h/mL
same,IC50,Cytochrome P450 1A2,> 100 µM
